Laboratory results as given in article PMC7449411, “In silico discovery and biological validation of ligands of FAD synthase, a promising new antimicrobial target” (PLoS Computational Biology, 2020).
≈ marks a conversion by molar mass, not a printed value.

Assays:
P. aeruginosa = test: MIC, resazurin broth microdilution; assay type: cell-based, Pseudomonas aeruginosa; conditions: media MH
CaFADS = molecular target: T1, CaFADS (Corynebacterium ammoniagenes, UniProt Q59263); test: Differential scanning fluorescence (thermal denaturation) binding to CaFADS; conditions: for Tm shift of CaFADS thermal denaturation: 2 μM CaFADS, compound up to 250 μM; for Kd: from differential scanning fluorescence data fitted to Eq 2, 20 mM PIPES pH 7.0, 10 mM MgCl2, 2% DMSO, n = 3, mean ± SD
T1 construct: made in house; host or cells: Escherichia coli BL21(DE3)
Procedure: Interaction of compounds with CaFADS was evaluated using fluorescence thermal denaturation, on the bases of the shifts in denaturation midpoints of thermal curves of the protein [65]. Denaturations were performed in a Stratagene Agilent Mx3005p qPCR instrument (Santa Clara, US) following SYPR Orange (ThermoFisher Scientific) emission fluorescence (excitation at 492 nm and emission at 610 nm), which greatly increases when this probe binds to protein hydrophobic regions becoming solvent exposed upon thermal unfolding. Solutions containing 2 μM CaFADS with the studied compound in an increasing 5-250 μM concentration range (2% residual final concentration of DMSO) and 5xSYPR Orange in 20 mM PIPES pH 7.0, 10 mM MgCl2, with a 100 μL total volume were dispensed into 96-well microplates (BRAND 96-well plates pure grade™). After an initial 1 min incubation at 25 °C within the equipment, unfolding curves were registered from 25 to 100 °C at 1 °C·min^−1. Control experiments with CaFADS samples with/without DMSO were routinely performed in each microplate. For those compounds shifting midpoint denaturation temperature, Tm, the dissociation constant, Kd, was predicted by fitting the data to the equation [66] ΔTm/Tm=NRTm0/ΔH0ln(1+[L]/Kd), (2) which estimates the extent of the ligand-induced protein stabilization/destabilization. ΔTm=|Tm-Tm0| with Tm0 and Tm being the midpoint denaturation temperatures in the absence and the presence of ligand, respectively, and ΔH0 the unfolding enthalpy of the protein in the absence of ligand.

FMNAT activity of CaFADS = molecular target: T2, FMNAT activity of CaFADS (Corynebacterium ammoniagenes, UniProt Q59263); test: Inhibition of the FMNAT activity of CaFADS; assay type: biochemical; conditions: 25 °C; for FMNAT % Res. act. 250 μM: residual activity at 250 μM of compound; for IC50: kinetic measurements, 5 μM FMN, 50 μM ATP, 20 mM PIPES pH 7.0, 10 mM MgCl2, 2% DMSO
T2 construct: made in house; host or cells: Escherichia coli BL21(DE3)
Procedure: (§1) To determine the compound’s ability to inhibit the RFK and/or the FMNAT activities of CaFADS, both enzymatic activities were quantitatively measured in the absence and presence of the compounds following previously described protocols. Reaction mixtures contained 50 μM ATP, 5 μM RF in 20 mM PIPES, pH 7.0, 0.8 mM MgCl2, when assaying the RFK activity, and 50 μM ATP, 10 μM FMN in 20 mM PIPES, pH 7.0, 10 mM MgCl2 when measuring the FMNAT reaction. Each compound was tested at 250 μM (0.5% residual final concentration of DMSO) for each of the two enzymatic reactions. The samples were pre-incubated at 25 °C, the reaction was then initiated by the addition of ∼ 40 nM CaFADS (final concentration) and allowed for 1 min. Finally, the reaction was stopped by boiling the samples for 5 min and the denatured protein was eliminated through centrifugation. The transformation of RF into FMN and FAD (RFK activity) and of FMN into FAD (FMNAT activity) was evaluated through flavins separation by HPLC (Waters), as previously described. All the experiments were performed in triplicate. To evaluate the potency of compounds as inhibitors, we took advantage of the decrease in quantum yield of fluorescence when FMN is transformed into FAD, which allows to follow such transformation in a continuous system. Measurements were carried out using a microplate reader Synergy HT multimode plate reader (Biotek) with BRAND 96-well plates pure Grade. Reaction mixtures contained 5 μM RF or FMN, and 50 μM ATP in 20 mM PIPES, pH 7.0, 10 mM MgCl2, and the inhibitor compound in a 5-250 μM concentration range (2% residual final concentration of DMSO). Reactions were initiated through addition of 0.4 μM CaFADS, being the final reaction volume 100 μL. Flavin fluorescence (excitation at 440 nm and emission at 530 nm) was registered at 25 °C, every 50 s during 15 min. The fluorescence change per time unit (ΔF/Δt) was calculated as the slope of the resulting fluorescence decays recorded between 0 and 6 min (linear decay of the fluorescence). Controls which contained the reaction mixture without the enzyme and without any potential CaFADS inhibitory compound were included in the assay and referred as the 0% and 100% of enzymatic activity, respectively. IC50 was calculated as the concentration of compound required for a 50% inhibition of the enzymatic activity.

C. diphteriae = test: MIC, resazurin broth microdilution; assay type: cell-based, Corynebacterium diphteriae
L. monocytogenes = test: MIC, resazurin broth microdilution; assay type: cell-based, Listeria monocytogenes; conditions: media BHI
C. ammoniagenes = test: MIC, resazurin broth microdilution; assay type: cell-based, Corynebacterium ammoniagenes; conditions: for MIC: C. ammoniagenes; for MIC (μM) C. ammoniagenes: Table 3
E. coli = test: MIC, resazurin broth microdilution; assay type: cell-based, Escherichia coli; conditions: media LB
C. glutamicum = test: MIC, resazurin broth microdilution; assay type: cell-based, Corynebacterium glutamicum; conditions: media BHI
S. pneumoniae = test: MIC, resazurin broth microdilution; assay type: cell-based, Streptococcus pneumoniae
[1] = molecular target: T3, RFK+FMNAT CaFADS activities (Corynebacterium ammoniagenes, UniProt Q59263); test: Inhibition of the RFK+FMNAT activity of CaFADS; assay type: biochemical; conditions: 25 °C; for RFK+FMNAT % Res. act. 250 μM: residual activity at 250 μM of compound; for IC50: kinetic measurements, 20 mM PIPES pH 7.0, 10 mM MgCl2, 2% DMSO
T3 construct: made in house; host or cells: Escherichia coli BL21(DE3)
Procedure: as §1

M. smegmatis = test: MIC, resazurin broth microdilution; assay type: cell-based, Mycobacterium smegmatis; conditions: media 7H9G-ADC
S. thyphimurium = test: MIC, resazurin broth microdilution; assay type: cell-based, Salmonella thyphimurium; conditions: media MH
M. tuberculosis = test: MIC, resazurin broth microdilution; assay type: cell-based, Mycobacterium tuberculosis; conditions: for MIC: M. tuberculosis, media 7H9G-ADC; for MIC (μM) M. tuberculosis: Table 3
S. aureus = test: MIC, resazurin broth microdilution; assay type: cell-based, Staphylococcus aureus; conditions: media MH
A549 = test: MTT cytotoxicity assay; assay type: cell-based; conditions: 24 h
Procedure: (§2) The (4,5-dimethylthiazol-2-yl)-2,5-diphenyl tetrazolium bromide (MTT) assay was used to determine the effect of the compounds in cell growth and viability of HeLa (ATCC CCL-2) and A549 (ATCC CCL-185) eukaryotic cell lines. Both cell lines were routinely cultured in high-glucose DMEM (Lonza) supplemented with 10% fetal bovine serum, 4 mM glutamine GlutaMAX™ (Gibco) and 1x non-essential amino acids (Gibco), under 5% CO2 at 37 °C in a humidified atmosphere. For the MTT assay, cells were initially seeded in 96-well flat-bottom plates at a density of 10^4 cells per well and cultured for 24 h. Cultures were routinely tested for mycoplasma presence. The compounds were dissolved in fresh culture medium, added in a 4-512 μM concentration range (1% DMSO final concentration), and incubated with the cells for 24 h. Finally, formazan crystals were dissolved with pure DMSO and MTT absorbance was measured at 570 and 650 nm. Untreated cells were included as control of 100% viability. Assays were done in quadruplicate.

HeLa = test: MTT cytotoxicity assay; assay type: cell-based; conditions: 24 h
Procedure: as §2

Mycobacteriumspecies = test: MIC against Mycobacterium species (S5 Fig legend); assay type: cell-based
[2] = 4-512 μM range, read-out: IC50 (concentration causing 50% inhibition of cellular viability)
[3] = complete viability at lower concentrations

T1 sequence (Q59263 whole entry): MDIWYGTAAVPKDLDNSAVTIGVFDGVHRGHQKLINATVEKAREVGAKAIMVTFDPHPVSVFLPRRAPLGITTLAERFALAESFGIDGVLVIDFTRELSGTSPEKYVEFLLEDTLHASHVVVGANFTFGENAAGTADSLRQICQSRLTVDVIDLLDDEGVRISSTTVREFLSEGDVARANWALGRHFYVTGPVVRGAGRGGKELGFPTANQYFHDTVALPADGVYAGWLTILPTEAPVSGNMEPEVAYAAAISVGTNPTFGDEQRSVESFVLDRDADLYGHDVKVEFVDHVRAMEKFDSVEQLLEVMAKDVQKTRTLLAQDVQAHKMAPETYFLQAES
T2 sequence (Q59263 whole entry): as above
T3 sequence (Q59263 whole entry): as above

SMILES | MIC (P. aeruginosa) [µM] | Tm shift of CaFADS thermal denaturation (CaFADS) | Kd (CaFADS) [µM] | FMNAT % Res. act. 250 μM (FMNAT activity of CaFADS) [%] | MIC (C. diphteriae; media BHI) [µM] | MIC (C. diphteriae; media MH) [µM] | MIC (L. monocytogenes) [µM] | MIC (C. ammoniagenes; media BHI) [µM] | MIC (C. ammoniagenes; media MH) [µM] | MIC (C. ammoniagenes; media MH+DFO) [µM] | MIC (C. ammoniagenes; media MH+DIP) [µM] | MIC (C. ammoniagenes; media MH+DIP+DFO) [µM] | MIC (E. coli) [µM] | MIC (C. glutamicum) [µM] | MIC (S. pneumoniae; media BHI) [µM] | MIC (S. pneumoniae; media MH) [µM] | RFK+FMNAT % Res. act. 250 μM [1] [%] | MIC (S. thyphimurium) [µM] | MIC (M. tuberculosis) [µM] | MIC (S. aureus) [µM] | further results
CSC(=NS(=O)(=O)c1c(C)noc1C)NNC(=O)Nc1ccc(Cl)cc1 [Compound C9, N1-(4-chlorophenyl)-2-[{[(3,5-dimethylisoxazol-4-yl)sulfonyl]imino}(methylthio)methyl]hydrazine-1-carboxamide] | > 256 | more than 3 degrees | 6.4 ± 1.2 | 56 ± 6 | > 64 | > 256 | > 64 | > 64 | > 256 | > 256 | > 256 | > 256 | > 64 | > 64 | > 256 | > 256 | 76 ± 3 | > 256 | > 256 | > 256 | MIC (M. smegmatis): > 256 µM
O=C(NCCNc1ccc(C(F)(F)F)cc1[N+](=O)[O-])c1cccnc1Oc1ccccc1 [Compound C26, N-{2-[2-nitro-4-(trifluoromethyl)anilino]ethyl}-2-phenoxynicotinamide] | > 256 |  |  | 72 ± 6 |  | > 256 | > 256 |  | > 256 | > 256 | > 256 | > 256 | > 256 | > 256 |  |  | 84 ± 4 | > 256 | > 256 | > 256 | 
COc1ccc(C(NC(=O)CCC(NC(=O)OCc2ccccc2)C(=O)O)c2ccc(OC)cc2)cc1 (stereo not shown) [Compound C2, 2-{[(benzyloxy)carbonyl]amino}-5-{[di(4-methoxyphenyl)methyl]amino}-5-oxopentanoic acid] | > 256 |  |  | >95 | 64 (≈ 32.4 µg/mL) | 128 (≈ 64.8 µg/mL) | > 64 | 64 (≈ 32.4 µg/mL) | 128 (≈ 64.8 µg/mL) | 128 (≈ 64.8 µg/mL) | 128 (≈ 64.8 µg/mL) | 64 (≈ 32.4 µg/mL) | > 64 | 16 (≈ 8.1 µg/mL) | 256 (≈ 130 µg/mL) | > 256 | 88 ± 2 | > 256 | 256 (≈ 130 µg/mL) | 128 (≈ 64.8 µg/mL) | IC50 (A549; [2]): > 512 µM; IC50 (HeLa; [2]): > 512 µM; MIC Mycobacterium species (Mycobacteriumspecies): lower than 256 μM; MIC C. ammoniagenes (C. ammoniagenes; S5 Fig legend, medium not stated): 64 µM (≈ 32.4 µg/mL); MIC (μM) C. ammoniagenes (C. ammoniagenes): 128 µM (≈ 64.8 µg/mL); MIC (M. smegmatis): 256 µM (≈ 130 µg/mL); MIC (μM) M. tuberculosis (M. tuberculosis): 256 µM (≈ 130 µg/mL)
CC1(C(=O)O)CCC2C(CCC3CC(O)CCC32C)C1C=C1Nc2ccccc2C1=O (stereo not shown) [Compound C3, 7-hydroxy-2,4b-dimethyl-1-[(3-oxo-2,3-dihydro-1H-2-indolyliden)methyl]perhydro-2-phenanthrenecarboxylic acid] | > 256 | shifted it to lower values | 18 ± 8 | 48 ± 3 | > 64 | > 256 | > 64 | > 64 | > 256 | > 256 | > 256 | > 256 | > 64 | > 64 | 256 (≈ 108 µg/mL) | 256 (≈ 108 µg/mL) | 48 ± 5 | > 256 | 256 (≈ 108 µg/mL) | > 256 | IC50 (FMNAT activity of CaFADS): 238 ± 7 µM; MIC Mycobacterium species (Mycobacteriumspecies): lower than 256 μM; MIC (μM) C. ammoniagenes (C. ammoniagenes): >256 µM; IC50 [1]: 248 ± 3 µM; MIC (M. smegmatis): > 256 µM; MIC (μM) M. tuberculosis (M. tuberculosis): 256 µM (≈ 108 µg/mL)
O=C(O)c1ccccc1C(=O)NC1CCN(c2nccc(C(F)(F)F)n2)CC1 [Compound C18, 2-[({1-[4-(trifluoromethyl)pyrimidin-2-yl]piperidin-4-yl}amino)carbonyl]benzoic acid] | > 256 | shifted it to lower values | 3 ± 0.9 |  |  | 32 (≈ 12.6 µg/mL) | 64 (≈ 25.2 µg/mL) |  | > 256 |  | > 256 | 256 (≈ 101 µg/mL) | > 256 | > 256 |  |  |  | > 256 | > 256 | 256 (≈ 101 µg/mL) | concentration range with moderate cytotoxicity (A549; [3]): 256 to 512 µM; concentration range with moderate cytotoxicity (HeLa; [3]): 256 to 512 µM; IC50 (FMNAT activity of CaFADS): 143 ± 4 µM; IC50 [1]: 147 ± 4 µM
